Measurements from PMC6848382, “Characterization of the Bioactivity and Mechanism of Bactenecin Derivatives Against Food-Pathogens” (Frontiers in Microbiology, 2019).
Read-outs that look alike come from different tables or passages of the source. No end group written: not given here.

Columns and labels:
[1] = system: Salmonella pullorum C79-13; assay type: cell-based; details: 24 h
Method: (§1) The antimicrobial activity of each peptide against food-pathogens was characterized by the minimum inhibitory concentration (MIC) ([Ma et al., 2013]). A logarithmic growth-phase culture of bacteria (1 × 10^6 CFU/mL) was mixed with peptide solutions (final concentration ranging from 0 μM to 256 μM) in 96-well plates. After the 96-well plates were incubated for 24 h at 37°C, optical dispersion (OD) was measured using a microplate reader (Bio-Rad, ıHercules, CA, United States) at 630 nm. […] The broth with bacteria cells was used as the negative control, and un-inoculated broth was used as a positive control. The tests were performed in triplicate using three replicates for each experiment.

[2] = system: Salmonella enteric-subspenterica CMCC50071; details: 1 × 10^6 CFU/mL, 24 h, 37°C, triplicate
Method: as §1

[3] = system: Salmonella enteric-subspenterica CMCC47020; details: 1 × 10^6 CFU/mL, 24 h, 37°C, triplicate
Method: as §1

[4] = system: EA. hy 926 cells; assay: Cytotoxicity (CCK-8); assay type: cell-based, human; details: CCK-8, 24 h; peptide concentration 128 μM
Method: The cytotoxicity of the peptides was tested on the EA. hy 926 cell line by using the Cell Counting Kit-8 (CCK-8, Dojindo, Japan) as described in a previous study ([Sánchez-Gómez et al., 2015]). The EA. Hy 926 cells cultured in the logarithmic growth -phase was then diluted with PBS to a single cell suspension. A 100 μL cell suspension (2 × 10^5 cells) was added to 96-well plates and cultured in an incubator with a 5% CO2 atmosphere at 37°C. The cell culture medium was removed, and the two-fold serial dilutions of peptides prepared using DMEM with 5% FBS were added to the 96-well plates. After 24 h, 100 μL DMEM with 10% CCK-8 was added to the 96-well plates and then cultured for 4 h. The absorbance was measured at 492 nm by using a microplate reader. DMEM served as a positive control and cells mixed with DMEM without peptides as a negative control. Melittin was employed as a control peptide.

[5] = system: Salmonella typhimurium C77-31; assay type: cell-based; details: murium C77-31, 24 h
Method: as §1

[6] = system: Staphylococcus aureus CMCC26074; assay type: cell-based; details: CMCC26074, 24 h
Method: as §1

[7] = system: Cronobacter sakazakii ATCC29544; assay type: cell-based; details: ATCC29544, 24 h
Method: as §1

[8] = system: Bacillus cereus CMCC6303; assay type: cell-based; details: CMCC6303, 24 h
Method: as §1

[9] = system: Escherichia coli ATCC25922; assay type: cell-based; details: for MIC, CaCl2 / MIC, Control / MIC, KCl / MIC, MgCl2 / MIC, NH4Cl / MIC, NaCl: ATCC25922, 24 h
Method: To evaluate the effect of different physiological conditions on the stability of peptides, we determined the salt stability, thermal stability, and enzymatic stability as described in a previous study ([Dong, 2013]; [Sun et al., 2018]). Escherichia coli ATCC25922 grown in the logarithmic phase (1 × 10^6 CFU/mL) was exposed to each peptide at different salt concentrations (150 mM NaCl, 4.5 mM KCl, 6 μM NH4Cl, 1 mM MgCl2, 8 μM ZnCl2, 2 mM CaCl2, and 4 μM FeCl3). The peptides were treated for 1 h at 100°C to test for thermal stability. The peptides were treated with trypsin, pepsin, papain and protease k at a concentration of 1 mg/mL for 1 h at 37°C to test for enzyme stability. The control group consisted of untreated peptides. The subsequent assay was consistent with the MIC assay.

[10] = system: 12 typical food-pathogens; details: over the 12 food-pathogens of Table 3
Method: as §1
The selectivity index (SI), calculated as the ratio of MHC to GM, was used a comparison parameter for the safety and efficacy of peptides.

[11] = system: Escherichia coli ATCC25922; assay type: cell-based; details: ATCC25922, 24 h
Method: as §1

[12] = system: Escherichia coli UB1005; assay type: cell-based; details: UB1005, 24 h
Method: as §1

[13] = system: Salmonella typhimurium ATCC14028; assay type: cell-based; details: ATCC14028, 24 h
Method: as §1

[14] = system: Listeria monocytogenes CMCC54004; assay type: cell-based; details: CMCC54004, 24 h
Method: as §1

[15] = system: Staphylococcus aureus ATCC25923; assay type: cell-based; details: ATCC25923, 24 h
Method: as §1

| Substance | MIC [1] | MIC [2] | MIC [3] | EA. hy 926 cell viability [4] | MIC [5] | MIC [6] | MIC [7] | MIC [8] | MIC, Heat ([9]; ATCC25922, 1 h) | MIC, Papain ([9]; ATCC25922, 1 h) | MIC, Pepsin ([9]; ATCC25922, 1 h) | MIC, Proteinase k ([9]; ATCC25922, 1 h) | MIC, CaCl2 [9] | MIC, Control [9] | MIC, KCl [9] | MIC, MgCl2 [9] | MIC, NH4Cl [9] | MIC, NaCl [9] | GM (geometric mean of MICs) [10] | MIC [11] | also measured |
| --- | --- | --- | --- | --- | --- | --- | --- | --- | --- | --- | --- | --- | --- | --- | --- | --- | --- | --- | --- | --- | --- |
| RKWRIVVIRVRR-NH2 [K2W3V10R11] | 8 µM | 8 µM | 64 µM | 80% | 32 µM | 256 µM | 32 µM | 16 µM | 8 µM | 2 µM | 128 µM | 256 µM | 8 µM | 2 µM | 2 µM | 4 µM | 2 µM | 8 µM | 19.0 µM | 2 µM | MIC, Trypsin ([9]; ATCC25922, 1 h): >256 µM; MIC [12]: 8 µM; MIC [13]: 32 µM; MIC [14]: 2 µM; MIC [15]: 128 µM |
| RRFRIVVIRWLR-NH2 [R2F3W10L11] | 32 µM | 8 µM | 64 µM | 71% | 64 µM | 256 µM | 32 µM | 32 µM | 32 µM | 8 µM | 16 µM | 128 µM | 8 µM | 2 µM | 8 µM | 2 µM | 4 µM | 16 µM | 32.0 µM | 2 µM | MIC, Trypsin ([9]; ATCC25922, 1 h): >256 µM; MIC [12]: 16 µM; MIC [13]: 32 µM; MIC [14]: 16 µM; MIC [15]: 256 µM |
| RRWRIVVIRWRR-NH2 [R2W3W10R11] | 32 µM | 8 µM | 256 µM | 77% | 64 µM | 128 µM | 64 µM | 64 µM | 8 µM | 4 µM | 32 µM | 128 µM | 2 µM | 2 µM | 2 µM | 2 µM | 2 µM | 4 µM | 30.2 µM | 2 µM | MIC, Trypsin ([9]; E. coli ATCC25922, peptides treated with trypsin 1 mg/mL, 1 h, 37°C): >256 µM; MIC [12]: 16 µM; MIC [13]: 64 µM; MIC [14]: 1 µM; MIC [15]: 128 µM |
